Measured values from US20050250818A1, “Ortho substituted aryl or heteroaryl amide compounds” (Pfizer Inc, priority 2004, published 2005).

Target: T1, human EP4 receptors (Homo sapiens, UniProt P35408)
T1 construct: expressed in transfected cells
Experiment: cAMP assay in human EP4 transfectant
Format: cell-based
Conditions: HEK293 cells expressing human EP4 receptors; 1 nM PGE2, 0.2 mM IBMX, 37° C. for 10 min
Experimental: cAMP Assay in Human EP4 Transfectant HEK293 cells expressing human EP4 receptors (hEP4 cells) are maintained in DMEM containing 10% FBS and 500 μg/ml geneticin. For harvesting hEP4 cells, culture medium is aspirated and cells in 75 cm^2 flask are washed with 10 ml of phosphate buffered saline (PBS). Another 10 ml of PBS is added to the cells and incubated for 20 min at room temperature. Human EP4 cells are harvested by pipetting and centrifuged at 300×g for 4 min. Cells are resuspended in DMEM without neutral red at a density of 7×10^5 cells/ml containing 0.2 mM IBMX (PDE inhibitor), 1 nM PGE2 and test compounds in PCR-tubes, and incubated at 37° C. for 10 min. The reaction is stopped by heating at 100° C. for 10 min with thermal cycler. Concentration of cAMP in reaction mixtures is determined with SPA cAMP Kit (Amersham) or cAMP Screen™ (Applied Biosystems) according to the manufacture's instruction. Reference: Eur. J. Pharmacol. 340 (1997) 227-241 cAMP assay in human EP4 transfectant were conducted using the method described above. IC50: the concentration of the individual compound required to reduce the amount of ligand by 50%.

T1 sequence (P35408 whole entry): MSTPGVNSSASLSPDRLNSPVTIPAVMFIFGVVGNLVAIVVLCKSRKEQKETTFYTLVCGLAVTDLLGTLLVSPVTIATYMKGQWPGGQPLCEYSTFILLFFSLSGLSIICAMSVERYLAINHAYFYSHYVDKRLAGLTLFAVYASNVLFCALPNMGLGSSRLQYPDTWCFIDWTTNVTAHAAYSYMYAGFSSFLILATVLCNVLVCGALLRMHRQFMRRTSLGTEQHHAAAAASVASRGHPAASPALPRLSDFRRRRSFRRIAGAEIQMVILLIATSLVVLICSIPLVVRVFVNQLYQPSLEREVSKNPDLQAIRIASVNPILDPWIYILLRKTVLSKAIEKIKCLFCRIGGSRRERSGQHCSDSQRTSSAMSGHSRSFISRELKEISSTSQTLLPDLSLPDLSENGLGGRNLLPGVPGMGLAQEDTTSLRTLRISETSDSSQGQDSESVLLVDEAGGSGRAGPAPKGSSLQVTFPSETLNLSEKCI

Structure (SMILES) | IC50 [nM]
C[C@H](NC(=O)c1cc(Cl)ccc1OCc1cc(F)cc(F)c1)c1ccc(C(=O)O)cc1 [EXAMPLE 37, 4-[(1S)-1-({5-CHLORO-2-[(3,5-DIFLUOROBENZYL)OXY]BENZOYL}AMINO)ETHYL]BENZOIC ACID] | 78
C[C@H](NC(=O)c1cc(Cl)ccc1OCCc1c(F)cccc1F)c1ccc(C(=O)O)cc1 [EXAMPLE 8, 4-[(1S)-1-({5-CHLORO-2-[2-(2,6-DIFLUOROPHENYL)ETHOXY]BENZOYL}AMINO)ETHYL]BENZOIC ACID] | 98
O=C(O)c1ccc(CNC(=O)c2cc(Cl)ccc2OCCc2ccccc2)cc1 [EXAMPLE 1, 4-({[5-CHLORO-2-(2-PHENYLETHOXY-)BENZOYL]AMINO}METHYL)BENZOIC ACID] | 149
O=C(O)c1ccc(CNC(=O)c2cc(Cl)ccc2OCc2ccc(Cl)cc2)cc1 [EXAMPLE 6, 4-[({5-CHLORO-2-[(4-CHLOROBENZYL)OXY]BENZOYL)AMINO)METHYL]BENZOIC ACID] | 441
C[C@H](NC(=O)c1cc(Cl)cnc1OCCc1ccc(Cl)cc1)c1ccc(C(=O)O)cc1 [EXAMPLE 15, 4-{(1S)-1-[({5-CHLORO-2-[2-(4-CHLOROPHENYL)ETHOXY]PYRIDIN-3-YL}CARBONYL)AMINO]ETHYL}BENZOIC ACID] | 78
CC(C)CCOc1ccc(Cl)cc1C(=O)N[C@@H](C)c1ccc(C(=O)O)cc1 [EXAMPLE 14, 4-((1S)-1-{[5-CHLORO-2-(3-METHYLBUTOXY)BENZOYL]AMINO}ETHYL)BENZOIC ACID] | 41
C[C@H](NC(=O)c1cc(Cl)cnc1N(C)Cc1ccc(Cl)cc1)c1ccc(C(=O)O)cc1 [EXAMPLE 51, 4-{(1S)-1-[({5-CHLORO-2-[(4-CHLOROBENZYL)(METHYL)AMINO]PYRIDIN-3-YL}CARBONYL)AMINO]ETHYL}BENZOIC ACID] | 25
C[C@H](NC(=O)c1cc(Cl)cnc1N(C)Cc1cccc(Cl)c1)c1ccc(C(=O)O)cc1 [EXAMPLE 52, 4-{(1S)-1-[({5-CHLORO-2-[(3-CHLOROBENZYL)(METHYL)AMINO]PYRIDIN-3-YL}CARBONYL)AMINO]ETHYL}BENZOIC ACID] | 65
C[C@H](NC(=O)c1cc(Cl)ccc1OCc1ccccc1C#N)c1ccc(C(=O)O)cc1 [EXAMPLE 41, 4-[(1S)-1-({5-CHLORO-2-[(2-CYANOBENZYL)OXY]BENZOYL}AMINO)ETHYL]BENZOIC ACID] | 39
COC(COc1ccc(Cl)cc1C(=O)N[C@@H](C)c1ccc(C(=O)O)cc1)c1ccccc1 (stereo partly drawn) [EXAMPLE 27, 4-((1S)-1-{[5-CHLORO-2-(2-METHOXY-2-PHENYLETHOXY)BENZOYL]AMINO}ETHYL)BENZOIC ACID] | 140
CC(C)CCOc1ncc(Cl)cc1C(=O)N[C@@H](C)c1ccc(C(=O)O)cc1 [EXAMPLE 31, 4-[(1S)-1-({[5-CHLORO-2-(3-METHYLBUTOXY)PYRIDIN-3-YL]CARBONYL}AMINO)ETHYL]BENZOIC ACID] | 140
C[C@H](NC(=O)c1cc(Cl)cnc1N(C)Cc1ccc(F)cc1)c1ccc(C(=O)O)cc1 [EXAMPLE 54, 4-{(1S)-1-[({5-CHLORO-2-[(4-FLUOROBENZYL)(METHYL)AMINO]PYRIDIN-3-YL}CARBONYL)AMINO]ETHYL}BENZOIC ACID] | 110
Cc1ccccc1CCOc1ncc(Cl)cc1C(=O)N[C@@H](C)c1ccc(C(=O)O)cc1 [EXAMPLE 19, 4-{(1S)-1-[({5-CHLORO-2-[2-(2-METHYLPHENYL)ETHOXY]PYRIDIN-3-YL}CARBONYL)AMINO]ETHYL}BENZOIC ACID] | 130
C[C@H](NC(=O)c1cc(Cl)cnc1N(C)CCc1ccccc1)c1ccc(C(=O)O)cc1 [EXAMPLE 16, 4-{(1S)-1-[({5-CHLORO-2-[METHYL(2-PHENYLETHYL)AMINO]PYRIDIN-3-YL}CARBONYL)AMINO]ETHYL}BENZOIC ACID] | 350
O=C(O)c1ccc(CNC(=O)c2cc(Cl)ccc2OCCc2ccc(F)cc2)cc1 [EXAMPLE 3, 4-[({5-CHLORO-2-[2-(4-FLUOROPHENYL)ETHOXY]BENZOYL}AMINO)METHYL]BENZOIC ACID] | 126
CC(C)COc1ccc(Cl)cc1C(=O)N[C@@H](C)c1ccc(C(=O)O)cc1 [EXAMPLE 30, 4-{(1S)-1-[(5-CHLORO-2-ISOBUTOXYBENZOYL)AMINO}ETHYL]BENZOIC ACID] | 140
C[C@H](NC(=O)c1cc(Cl)cnc1OCc1ccc(Cl)cc1)c1ccc(C(=O)O)cc1 [EXAMPLE 40, 4-{(1S)-1-[({5-CHLORO-2-[(4-CHLOROBENZYL)OXY]PYRIDIN-3-YL}CARBONYL)AMINO]ETHYL}BENZOIC ACID] | 72
C[C@H](NC(=O)c1cc(Cl)cnc1N(C)Cc1ccccc1F)c1ccc(C(=O)O)cc1 [EXAMPLE 50, 4-{(1S)-1-[({5-CHLORO-2-[(2-FLUOROBENZYL)(METHYL)AMINO]PYRIDIN-3-YL}CARBONYL)AMINO]ETHYL}BENZOIC ACID] | 120
C[C@H](NC(=O)c1cc(Cl)ccc1OCCOc1ccccc1)c1ccc(C(=O)O)cc1 [EXAMPLE 26, 4-((1S)-1-{[5-CHLORO-2-(2-PHENOXYETHOXY)BENZOYL]AMINO}ETHYL)BENZOIC ACID] | 62
Cc1ccccc1CCOc1ccc(Cl)cc1C(=O)NCc1ccc(C(=O)O)cc1 [EXAMPLE 7, 4-[({5-CHLORO-2-[2-(2-METHYLPHENYL)ETHOXY]BENZOYL}AMINO)METHYL]BENZOIC ACID] | 62

More lines, now with the values ahead:

IC50 [nM] | Structure (SMILES)
13 | C[C@H](NC(=O)c1cc(Cl)ccc1OCc1ccccc1Cl)c1ccc(C(=O)O)cc1 [EXAMPLE 22, 4-[(1S)-1-({5-CHLORO-2-[(2-CHLOROBENZYL)OXY]BENZOYL}AMINO)ETHYL]BENZOIC ACID]
170 | C[C@H](NC(=O)c1cc(Cl)ccc1OCc1ccccc1F)c1ccc(C(=O)O)cc1 [EXAMPLE 36, 4-[(1S)-1-({5-CHLORO-2-[(2-FLUOROBENZYL)OXY]BENZOYL}AMINO)ETHYL]BENZOIC ACID]
35 | C[C@H](NC(=O)c1cc(Cl)ccc1OC1CCCCC1)c1ccc(C(=O)O)cc1 [EXAMPLE 13, 4-((1S)-1-{[5-CHLORO-2-(CYCLOHEXYLOXY)BENZOYL]AMINO}ETHYL)BENZOIC ACID]
20 | Cc1ccccc1CCOc1ccc(Cl)cc1C(=O)N[C@@H](C)c1ccc(C(=O)O)cc1 [EXAMPLE 11, 4-[(1S)-1-({5-CHLORO-2-[2-(2-METHYLPHENYL)ETHOXY]BENZOYL}AMINO)ETHYL]BENZOIC ACID]
110 | C[C@H](NC(=O)c1cc(Cl)ccc1OCc1ccc(F)cc1F)c1ccc(C(=O)O)cc1 [EXAMPLE 35, 4-[(1S)-1-({5-CHLORO-2-[(2,4-DIFLUOROBENZYL)OXY]BENZOYL}AMINO)ETHYL]BENZOIC ACID]
510 | C[C@H](NC(=O)c1cc(Cl)ccc1O[C@H]1CC[C@@H](C)CC1)c1ccc(C(=O)O)cc1 [EXAMPLE 17, 4-[(1S)-1-({5-CHLORO-2-[(C/S4-METHYLCYCLOHEXYL)OXY]BENZOYL}AMINO)ETHYL]BENZOIC ACID]
200 | CC(C)OCCOc1ccc(Cl)cc1C(=O)N[C@@H](C)c1ccc(C(=O)O)cc1 [EXAMPLE 21, 4-((1S)-1-{[5-CHLORO-2-(2-ISOPROPOXYETHOXY)BENZOYL]AMINO}ETHYL)BENZOIC ACID]
50 | C[C@H](NC(=O)c1cc(Cl)ccc1OCc1cc(F)ccc1F)c1ccc(C(=O)O)cc1 [EXAMPLE 32, 4-[(1S)-1-({5-CHLORO-2-[(2,5-DIFLUOROBENZYL)OXY]BENZOYL}AMINO)ETHYL]BENZOIC ACID]
46 | C[C@H](NC(=O)c1cc(Cl)ccc1OCc1ccc(F)cc1)c1ccc(C(=O)O)cc1 [EXAMPLE 25, 4-[(1S)-1-({5-CHLORO-2-[(4-FLUOROBENZYL)OXY]BENZOYL}AMINO)ETHYL]BENZOIC ACID]
63 | C[C@H](NC(=O)c1cc(Cl)ccc1OCc1ccc(F)c(F)c1)c1ccc(C(=O)O)cc1 [EXAMPLE 33, 4-[(1S)-1-({5-CHLORO-2-[(3,4-DIFLUOROBENZYL)OXY]BENZOYL}AMINO)ETHYL]BENZOIC ACID]
30 | C[C@H](NC(=O)c1cc(Cl)ccc1OCC1CCC1)c1ccc(C(=O)O)cc1 [EXAMPLE 29, 4-((1S)-1-{[5-CHLORO-2-(CYCLOBUTYLMETHOXY)BENZOYL]AMINO}ETHYL)BENZOIC ACID]
75 | C[C@H](NC(=O)c1cc(Cl)ccc1OCc1ccccc1)c1ccc(C(=O)O)cc1 [EXAMPLE 38, 4-((1S)-1-{[2-(BENZYLOXY)-5-CHLOROBENZOYL]AMINO}ETHYL)BENZOIC ACID]
360 | C[C@H](NC(=O)c1cc(Cl)ccc1OCC1CCCO1)c1ccc(C(=O)O)cc1 (stereo partly drawn) [EXAMPLE 49, 4-((1S)-1-{[5-CHLORO-2-(TETRAHYDROFURAN-2-YLMETHOXY)BENZOYL]AMINO}ETHYL)BENZOIC ACID]
21 | Cc1ccc(CCOc2ccc(Cl)cc2C(=O)N[C@@H](C)c2ccc(C(=O)O)cc2)cc1 [EXAMPLE 12, 4-[(1S)-1-({5-CHLORO-2-[2-(4-METHYLPHENYL)ETHOXY]BENZOYL}AMINO)ETHYL]BENZOIC ACID]
29 | C[C@H](NC(=O)c1cc(Cl)ccc1OCc1ccc(Cl)cc1)c1ccc(C(=O)O)cc1 [EXAMPLE 24, 4-[(1S)-1-({5-CHLORO-2-[(4-CHLOROBENZYL)OXY]BENZOYL}AMINO)ETHYL]BENZOIC ACID]
140 | C[C@H](NC(=O)c1cc(Cl)ccc1OCc1cccc(F)c1)c1ccc(C(=O)O)cc1 [EXAMPLE 43, 4-[(1S)-1-({5-CHLORO-2-[(3-FLUOROBENZYL)OXY]BENZOYL}AMINO)ETHYL]BENZOIC ACID]
22 | C[C@H](NC(=O)c1cc(Cl)ccc1OCc1cccc(Cl)c1)c1ccc(C(=O)O)cc1 [EXAMPLE 23, 4-[(1S)-1-({5-CHLORO-2-[(3-CHLOROBENZYL)OXY]BENZOYL}AMINO)ETHYL]BENZOIC ACID]
